Assay results as given in US4551472A, “Unsymmetrical bis-carbamate compounds” (priority 1984, dated 1985).

Legend:
[1] = tested on: Cotton; test: Phytotoxicity Test, cotton; conditions: 2500 ppm spray, ten days
[2] = tested on: Tom; test: Phytotoxicity Test, tomato; conditions: 2500 ppm spray, ten days
Method: (§1) Experiments were also conducted to determine the phytotoxicity of representative compounds with respect to healthy fresh plants. […] The test plants were sprayed in accordance with the procedure described above for the Mite Foliage Spray Test so as to deliver approximately 100 milliliters of test solution to the leaves of each plant tested. The sprayed plants and controls were set aside for approximately one hour to allow the foliage to dry and were then placed in the greenhouse. After ten days the plants were visually inspected to determine the extent of foliage injury. A rating of 1 indicates no perceptible injury; 5 indicates the plant was dead and ratings of 2, 3 and 4 indicate intermediate degrees of injury based upon the number and extent to which leaves were injured.

[3] = tested on: Corn; test: Phytotoxicity Test, corn; conditions: 2500 ppm spray, ten days
Method: as §1

[4] = tested on: Soy; test: Phytotoxicity Test, soy; conditions: 2500 ppm spray, ten days
Method: as §1

[5] = tested on: root-knot nematode, Meloidogyne incognita var. acrita; test: Nematocide Test; also: key: 1: severe galling, equal to untreated plants; 2: moderate galling; 3: light galling; 4: very light galling; 5: no galling, perfect control; assay type: in vivo; conditions: 3.33 m.g. per jar; cucumber, approximately 3 weeks
Method: The test organism used was the infective migratory larvae of the root-knot nematode, Meloidogyne incognita var. acrita, reared in the greenhouse on roots of cucumber plants. Infected plants were removed from the culture, and the roots are chopped very finely. A small amount of this inoculum was added to a pint jar containing approximately 180 cc. of soil. The jars were capped and incubated for one week at room temperature. During this period eggs of the nematode were hatched, and the larval forms migrated into the soil.
Ten ml. of the test formulation were added to each of the two jars for each dosage tested. Following the addition of chemical, the jars were capped, and the contents thoroughly mixed on a ball mill for 5 minutes.
The test compounds were formulated by a standard procedure of solution in acetone addition of an emulsifier, and dilution with water. Primary screening tests were conducted at 3.33 m.g. of the test compound per jar.
The jars were left capped at room temperature for a period of 48 hours, and the contents then transferred to 3 inch pots. Subsequently, the pots were seeded to cucumber as an indicator crop and placed in the greenhouse where they were cared for in the normal fashion for approximately 3 weeks.
The cucumber plants were then taken from the pots, the soil removed from the roots; and the amount of galling visually rated.
In the test for activity against nematodes (nem) activity was rated as follows: […]

[6] = tested on: Bean; test: Phytotoxicity Test, bean; conditions: 2500 ppm spray, ten days
Method: as §1

[7] = Mammalian Toxicity, peroral toxicity to rat; assay type: in vivo; conditions: in vivo, po, read-out: A.O. Rat LD50
Method: Certain compounds were also evaluated to determine their peroral toxicity to mammals by conventional methods. The representative animal selected for this experiment was the rat.

| SMILES | Phytotoxicity: Cotton [1] | Phytotoxicity: Tom [2] | Phytotoxicity: Corn [3] | Phytotoxicity: Soy [4] | Biological Activity: Nem (nematode, galling rating) [5] | Phytotoxicity: Bean [6] | LD50 [7] |
| --- | --- | --- | --- | --- | --- | --- | --- |
| CSC(C)=NOC(=O)N(C)SN(C)C(=O)ON=CC(C)(C)SC [Example I, N-[2-Methylthio-2-methylpropionaldehyde O-(N-methylcarbamoyl)oxime]N-[1-methylthioacetaldehyde O-(N-methylcarbamoyl)oxime]sulfide] | 2 | 1 | 1 | 1 | 5 | 2 | 2.1 mg/kg |
| CN(SN(C)C(=O)ON=C1SC(C)(C)C(=O)N1C)C(=O)ON=C1CSCCS1 [Example III, N-[2-(O-(N-methylcarbamoyl)oximino]-1,4-dithiane]-N-[2-O-(N-methylcarbamoyl)oximino-3,5,5-trimethylthiazolidin-4-one]sulfide] | 2 | 1 | 2 | 2 | 1 | 1 | 160 mg/kg |
| CSC(C)=NOC(=O)N(C)SN(C)C(=O)ON=C1CSCCS1 [Example II] | 1 | 1 | 1 | 1 | 5 | 1 | 190 mg/kg |
| CSC(C)=NOC(=O)N(C)SN(C)C(=O)ON=C(SC)C(=O)N(C)C [XI, N-[1-Methylthioacetaldehyde O-(N-methylcarbamoyl)oxime]N-[1-methylthio-N', N'-dimethylcarbamoylformaldehyde O-(N-methylcarbamoyl)oxime]sulfide] | 2 | 1 | 1 | 1 |  | 1 | 14.1 mg/kg |
| CSC(C)=NOC(=O)N(C)SN(C)C(=O)Oc1cccc(C(C)C)c1 [XXVIII] | 2 | 1 | 1 | 2 |  | 1 | 40 mg/kg |
| C=CCc1ccc(OC(=O)N(C)SN(C)C(=O)ON=C(C)SC)c(OC)c1 [XXXIII] | 3 | 1 | 1 | 1 | 5 | 1 |  |
| CSC(C)=NOC(=O)N(C)SN(C)C(=O)Oc1ccc(-c2ccccc2)cc1 [XXXII] | 2 | 1 | 1 | 1 | 4 | 2 |  |
| CSC(C)=NOC(=O)N(C)SN(C)C(=O)Oc1ccc(Oc2ccccc2)cc1 [XXXIV] | 1 | 1 | 1 | 1 |  | 1 | > 640 mg/kg |
| CSC(C)=NOC(=O)N(C)SN(C)C(=O)Oc1ccccc1OC(C)C [XXXVIII] | 1 | 1 | 1 | 2 |  | 1 | 63.5 mg/kg |
| CSC(C)=NOC(=O)N(C)SN(C)C(=O)Oc1ccccc1C1OCCO1 [XXXVII] | 2 | 1 | 1 | 2 | 4 | 2 |  |
| CCCCCCCCCCCCc1ccc(OC(=O)N(C)SN(C)C(=O)ON=C(C)SC)cc1 [XXX] | 2 | 1 | 1 | 1 | 4 | 1 |  |
